{"source": "ChEMBL document CHEMBL1817617", "about": "“Novel macrocyclic C-aryl glucoside SGLT2 inhibitors as potential antidiabetic agents” (Bioorg Med Chem, 2011)", "key": {"[1]": {"target": "T1, Sodium/glucose cotransporter 2 (Homo sapiens, UniProt P31639)", "T1 sequence (P31639 whole entry)": "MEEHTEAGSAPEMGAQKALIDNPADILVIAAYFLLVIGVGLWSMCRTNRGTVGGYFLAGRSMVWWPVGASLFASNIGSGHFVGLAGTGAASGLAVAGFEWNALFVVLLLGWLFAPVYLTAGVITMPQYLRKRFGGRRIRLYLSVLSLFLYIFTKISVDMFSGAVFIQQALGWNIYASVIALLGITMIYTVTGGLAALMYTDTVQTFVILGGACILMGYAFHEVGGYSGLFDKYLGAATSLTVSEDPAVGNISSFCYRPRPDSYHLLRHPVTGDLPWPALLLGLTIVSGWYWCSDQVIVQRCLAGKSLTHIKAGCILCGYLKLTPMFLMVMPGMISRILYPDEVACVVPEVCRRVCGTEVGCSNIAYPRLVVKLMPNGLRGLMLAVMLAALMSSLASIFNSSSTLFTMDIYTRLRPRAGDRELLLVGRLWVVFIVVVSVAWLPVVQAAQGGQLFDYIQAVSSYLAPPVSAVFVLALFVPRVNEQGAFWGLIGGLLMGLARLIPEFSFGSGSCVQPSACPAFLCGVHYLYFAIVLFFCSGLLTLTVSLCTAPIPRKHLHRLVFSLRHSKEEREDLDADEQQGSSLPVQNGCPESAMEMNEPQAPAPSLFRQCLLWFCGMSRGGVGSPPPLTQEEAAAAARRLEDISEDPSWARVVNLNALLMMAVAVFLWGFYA", "experiment": "Inhibition of human SGLT2 expressed in CHO cells assessed as reduction of [14C]-labeled AMG after 2 hrs by liquid scintillation counting", "assay_type": "cell-based"}, "Rattus norvegicus": {"test_system": "Rattus norvegicus", "experiment": "Antidiabetic activity in Sprague-Dawley rat assessed as induction of urinary glucose excretion per 200 gram of body weight at 1 mg/kg, po", "assay_type": "functional, Urine"}}, "data": [{"smiles": "CCOc1ccc(Cc2cc3c(cc2Cl)OCCOC[C@H]2O[C@@H]3[C@H](O)[C@@H](O)[C@@H]2O)cc1", "values": [{"measurement": "IC50", "setting": "[1]", "value": 1.34, "unit": "nM"}]}, {"smiles": "CCOc1ccc(Cc2cc([C@@H]3O[C@H](CO)[C@@H](O)[C@H](O)[C@H]3O)ccc2Cl)cc1", "note": "[DAPAGLIFLOZIN]", "values": [{"measurement": "Activity", "setting": "Rattus norvegicus", "value": 1648, "unit": "mg"}]}, {"smiles": "CCc1ccc(Cc2cc3c(cc2Cl)OCCCOC[C@H]2O[C@@H]3[C@H](O)[C@@H](O)[C@@H]2O)cc1", "values": [{"measurement": "IC50", "setting": "[1]", "value": 1.59, "unit": "nM"}]}, {"smiles": "CCOc1ccc(Cc2cc3c(cc2Cl)OCCCCCOC[C@H]2O[C@@H]3[C@H](O)[C@@H](O)[C@@H]2O)cc1", "values": [{"measurement": "Activity", "setting": "Rattus norvegicus", "value": 226, "unit": "mg"}]}, {"smiles": "CCOc1ccc(Cc2cc3c(cc2Cl)OCCCOC[C@H]2O[C@@H]3[C@H](O)[C@@H](O)[C@@H]2O)cc1", "values": [{"measurement": "IC50", "setting": "[1]", "value": 2.95, "unit": "nM"}]}, {"smiles": "CCc1ccc(Cc2cc3c(cc2Cl)OCCCCCOC[C@H]2O[C@@H]3[C@H](O)[C@@H](O)[C@@H]2O)cc1", "values": [{"measurement": "Activity", "setting": "Rattus norvegicus", "value": 116, "unit": "mg"}]}]}
